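Each compound was tested at five concentrations against cells in 96-well plates for 48 hours. TGI: concentration producing complete growth inhibition.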
How the values were obtained:
Test in all cases: growth of human tumour cells (NCI), 48 h
OVCAR-8 ovarian = tested on: OVCAR-8 ovarian
MALME-3M melanoma = tested on: MALME-3M melanoma
UACC-62 melanoma = tested on: UACC-62 melanoma
NCI-H460 lung = tested on: NCI-H460 lung
A549 NSCLC = tested on: A549 NSCLC
RXF 393 renal = tested on: RXF 393 renal
BT-549 breast = tested on: BT-549 breast
SF-268 CNS = tested on: SF-268 CNS
SK-MEL-28 melanoma = tested on: SK-MEL-28 melanoma
HCT-116 colon = tested on: HCT-116 colon
PC-3 prostate = tested on: PC-3 prostate
HOP-62 NSCLC = tested on: HOP-62 NSCLC
SW-620 colon = tested on: SW-620 colon
SF-539 CNS = tested on: SF-539 CNS
UO-31 renal = tested on: UO-31 renal
SK-OV-3 ovarian = tested on: SK-OV-3 ovarian
OVCAR-4 ovarian = tested on: OVCAR-4 ovarian
SNB-75 CNS = tested on: SNB-75 CNS
TK-10 renal = tested on: TK-10 renal
SNB-19 CNS = tested on: SNB-19 CNS
RPMI-8226 leukemia = tested on: RPMI-8226 leukemia
A498 renal = tested on: A498 renal
SK-MEL-5 melanoma = tested on: SK-MEL-5 melanoma
SN12C renal = tested on: SN12C renal
U251 CNS = tested on: U251 CNS
T-47D breast = tested on: T-47D breast
OVCAR-3 ovarian = tested on: OVCAR-3 ovarian
HOP-92 NSCLC = tested on: HOP-92 NSCLC
SR leukemia = tested on: SR leukemia
K-562 leukemia = tested on: K-562 leukemia
MOLT-4 leukemia = tested on: MOLT-4 leukemia
MDA-MB-435 = tested on: MDA-MB-435
MDA-N = tested on: MDA-N
M14 melanoma = tested on: M14 melanoma
EKVX NSCLC = tested on: EKVX NSCLC
HS 578T breast = tested on: HS 578T breast
NCI-H23 lung = tested on: NCI-H23 lung
HL-60(TB) leukemia = tested on: HL-60(TB) leukemia
IGROV1 ovarian = tested on: IGROV1 ovarian
DU-145 prostate = tested on: DU-145 prostate
MDA-MB-231 breast = tested on: MDA-MB-231 breast
MCF7 breast = tested on: MCF7 breast
HT29 colon = tested on: HT29 colon
COLO 205 colon = tested on: COLO 205 colon
SK-MEL-2 melanoma = tested on: SK-MEL-2 melanoma
786-0 renal = tested on: 786-0 renal
HCT-15 colon = tested on: HCT-15 colon
CAKI-1 renal = tested on: CAKI-1 renal
OVCAR-5 ovarian = tested on: OVCAR-5 ovarian
NCI/ADR-RES ovarian = tested on: NCI/ADR-RES ovarian
UACC-257 melanoma = tested on: UACC-257 melanoma
LOX IMVI melanoma = tested on: LOX IMVI melanoma
KM12 colon = tested on: KM12 colon
NCI-H226 lung = tested on: NCI-H226 lung
SF-295 CNS = tested on: SF-295 CNS
CCRF-CEM leukemia = tested on: CCRF-CEM leukemia

Question: `N#CC1=C(N)OC2=C(CSc3ccccc32)C1c1ccc(Br)cc1` (stereo unspecified) was tested. Which TGI (OVCAR-8 ovarian) did it give?
Answer: 14.8 µM

Question: What about the TGI (MALME-3M melanoma) of the same molecule?
Answer: 30.7 µM

Question: And the TGI (UACC-62 melanoma)?
Answer: 21.8 µM

Question: What about the TGI (NCI-H460 lung) of the same molecule?
Answer: 26.8 µM

Question: What about the TGI (A549 NSCLC) of the same molecule?
Answer: 27.2 µM

Question: What about the TGI (RXF 393 renal) of the same molecule?
Answer: 16.3 µM

Question: What about the TGI (BT-549 breast) of the same molecule?
Answer: 28.4 µM

Question: What about the TGI (SF-268 CNS) of the same molecule?
Answer: 25.6 µM

Question: And the TGI (SK-MEL-28 melanoma)?
Answer: 28 µM

Question: What about the TGI (HCT-116 colon) of the same molecule?
Answer: 14.2 µM

Question: What about the TGI (PC-3 prostate) of the same molecule?
Answer: 16.8 µM

Question: What about the TGI (HOP-62 NSCLC) of the same molecule?
Answer: 32.7 µM

Question: And the TGI (SW-620 colon)?
Answer: 23.8 µM

Question: What about the TGI (SF-539 CNS) of the same molecule?
Answer: 13.7 µM

Question: What about the TGI (UO-31 renal) of the same molecule?
Answer: 26.7 µM

Question: What about the TGI (SK-OV-3 ovarian) of the same molecule?
Answer: 27 µM

Question: What about the TGI (OVCAR-4 ovarian) of the same molecule?
Answer: 19.3 µM

Question: What about the TGI (SNB-75 CNS) of the same molecule?
Answer: 21.7 µM

Question: And the TGI (TK-10 renal)?
Answer: 31.2 µM

Question: And the TGI (SNB-19 CNS)?
Answer: 51.9 µM

Question: What about the TGI (RPMI-8226 leukemia) of the same molecule?
Answer: 5.52 µM

Question: What about the TGI (A498 renal) of the same molecule?
Answer: 27.2 µM

Question: What about the TGI (SK-MEL-5 melanoma) of the same molecule?
Answer: 25.7 µM

Question: What about the TGI (SN12C renal) of the same molecule?
Answer: 20.4 µM

Question: What about the TGI (U251 CNS) of the same molecule?
Answer: 19.9 µM

Question: What about the TGI (T-47D breast) of the same molecule?
Answer: 25.8 µM

Question: What about the TGI (OVCAR-3 ovarian) of the same molecule?
Answer: 21.6 µM

Question: What about the TGI (HOP-92 NSCLC) of the same molecule?
Answer: 21.5 µM

Question: What about the TGI (SR leukemia) of the same molecule?
Answer: 10.3 µM

Question: And the TGI (K-562 leukemia)?
Answer: 11.3 µM

Question: What about the TGI (MOLT-4 leukemia) of the same molecule?
Answer: 8.44 µM

Question: And the TGI (MDA-MB-435)?
Answer: 7.82 µM

Question: What about the TGI (MDA-N) of the same molecule?
Answer: 14.4 µM

Question: What about the TGI (M14 melanoma) of the same molecule?
Answer: 39.8 µM

Question: And the TGI (EKVX NSCLC)?
Answer: 11.4 µM

Question: And the TGI (HS 578T breast)?
Answer: > 100 µM

Question: What about the TGI (NCI-H23 lung) of the same molecule?
Answer: 26.4 µM

Question: What about the TGI (HL-60(TB) leukemia) of the same molecule?
Answer: 6.17 µM

Question: What about the TGI (IGROV1 ovarian) of the same molecule?
Answer: 25.8 µM

Question: What about the TGI (DU-145 prostate) of the same molecule?
Answer: > 100 µM

Question: And the TGI (MDA-MB-231 breast)?
Answer: 29.3 µM

Question: What about the TGI (MCF7 breast) of the same molecule?
Answer: 13.8 µM

Question: What about the TGI (HT29 colon) of the same molecule?
Answer: 18.4 µM

Question: What about the TGI (COLO 205 colon) of the same molecule?
Answer: 10.8 µM

Question: And the TGI (SK-MEL-2 melanoma)?
Answer: 23 µM

Question: And the TGI (786-0 renal)?
Answer: 22.8 µM

Question: And the TGI (HCT-15 colon)?
Answer: 24.5 µM

Question: What about the TGI (CAKI-1 renal) of the same molecule?
Answer: 26.4 µM

Question: What about the TGI (OVCAR-5 ovarian) of the same molecule?
Answer: 32.7 µM

Question: What about the TGI (NCI/ADR-RES ovarian) of the same molecule?
Answer: 7.75 µM

Question: What about the TGI (UACC-257 melanoma) of the same molecule?
Answer: 30.2 µM

Question: What about the TGI (LOX IMVI melanoma) of the same molecule?
Answer: 11.2 µM

Question: What about the TGI (KM12 colon) of the same molecule?
Answer: 44.6 µM

Question: And the TGI (NCI-H226 lung)?
Answer: 27.9 µM

Question: And the TGI (SF-295 CNS)?
Answer: 29 µM

Question: And the TGI (CCRF-CEM leukemia)?
Answer: 6.83 µM

Source: PubChem BioAssay (NCI)
